Results taken from PubChem BioAssay AID1963977 (Molecular Pharmacology Branch, DTP, NCI, 2024).
pIC50: −log10 of the molar value.

Tested on: 624824-186-R-J3-PDC multicell spheroids, viability
Test: Anticancer human tumor 624824-186-R-J3-PDC patient-derived colon adenocarcinoma cell line growth inhibition [PI3K]
Details: for pIC50: curve of first compound; for viability, T/C: stronger effect = lower value
Procedure, shortened: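 We assembled tumor spheroids that included a stromal compartment of HUVEC and MSCs, then exposed them to targeted agents alone and together with PI3K pathway inhibitors. Concentration series descended by half-log from clinically achievable Cmax levels. Viability served as the endpoint.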

[1] = second compound 0.0316 µM, first compound 0.0316 µM
[2] = second compound 0.0316 µM, first compound 0.1 µM
[3] = second compound 0.1 µM, first compound 0.0316 µM
[4] = second compound 0.1 µM, first compound 0.1 µM
[5] = second compound 0.316 µM, first compound 0.0316 µM
[6] = second compound 0.316 µM, first compound 0.1 µM
[7] = second compound 1 µM, first compound 0.0316 µM
[8] = second compound 1 µM, first compound 0.1 µM
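Also: spheroids exposed to agents for seven days before luminescence read.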
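For viability, T/C in this document: luminescent signal used as a stand-in for spheroid viability; percent viability relative to DMSO vehicle control wells taken as 100%.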

`C#Cc1c(F)ccc2cc(O)cc(-c3ncc4c(N5CC6CCC(C5)N6)nc(OCC56CCCN5CC(F)C6)nc4c3F)c12` (stereo unspecified) + COc1c(OCCCN2CCOCC2)ccc2c3n(c(=NC(=O)c4cnc(N)nc4)nc12)CCN3 was tested, and the pIC50 (second compound 0.00316 µM) was under 5.00, the pIC50 (second compound 0.01 µM) was under 5.00 and the pIC50 (second compound 0.0316 µM) was under 5.00. It also gave a pIC50 (second compound 0.1 µM) of under 5.00, a pIC50 (second compound 0.316 µM) of 6.31 and a pIC50 (second compound 1 µM) of over 7.50. The viability, T/C (second compound 0.00316 µM, first compound 0.0316 µM) was 104%, the viability, T/C (second compound 0.00316 µM, first compound 0.1 µM) was 116% and the viability, T/C (second compound 0.00316 µM, first compound 0.316 µM) was 114%. It also gave a viability, T/C (second compound 0.00316 µM, first compound 1 µM) of 103%, a viability, T/C (second compound 0.00316 µM, first compound 3.16 µM) of 112% and a viability, T/C (second compound 0.00316 µM, first compound 10 µM) of 111%. The viability, T/C (second compound 0.01 µM, first compound 0.0316 µM) was 103%, the viability, T/C (second compound 0.01 µM, first compound 0.1 µM) was 101% and the viability, T/C (second compound 0.01 µM, first compound 0.316 µM) was 102%. It also gave a viability, T/C (second compound 0.01 µM, first compound 1 µM) of 114%, a viability, T/C (second compound 0.01 µM, first compound 3.16 µM) of 103% and a viability, T/C (second compound 0.01 µM, first compound 10 µM) of 103%. It also gave a viability, T/C [1] of 92%, a viability, T/C [2] of 95.5% and a viability, T/C (second compound 0.0316 µM, first compound 0.316 µM) of 103%. The viability, T/C (second compound 0.0316 µM, first compound 1 µM) was 93%, the viability, T/C (second compound 0.0316 µM, first compound 3.16 µM) was 93% and the viability, T/C (second compound 0.0316 µM, first compound 10 µM) was 90.9%. It also gave a viability, T/C [3] of 87.1%, a viability, T/C [4] of 73.7% and a viability, T/C (second compound 0.1 µM, first compound 0.316 µM) of 78.5%. For the same compound, the viability, T/C (second compound 0.1 µM, first compound 1 µM) was 78.2%, the viability, T/C (second compound 0.1 µM, first compound 3.16 µM) was 73.6% and the viability, T/C (second compound 0.1 µM, first compound 10 µM) was 63.5%. The viability, T/C [5] was 54.7%, the viability, T/C [6] was 49.9% and the viability, T/C (second compound 0.316 µM, first compound 0.316 µM) was 54.1%. It also gave a viability, T/C (second compound 0.316 µM, first compound 1 µM) of 46.4%, a viability, T/C (second compound 0.316 µM, first compound 3.16 µM) of 44.8% and a viability, T/C (second compound 0.316 µM, first compound 10 µM) of 37.6%. The viability, T/C [7] was 28.4%, the viability, T/C [8] was 27.7% and the viability, T/C (second compound 1 µM, first compound 0.316 µM) was 26.9%. For the same compound, the viability, T/C (second compound 1 µM, first compound 1 µM) was 23.5%, the viability, T/C (second compound 1 µM, first compound 3.16 µM) was 24.6% and the viability, T/C (second compound 1 µM, first compound 10 µM) was 17.1%.
In the case of `Cn1ncnc1[C@H]1c2n[nH]c(=O)c3cc(F)cc(c23)N[C@@H]1c1ccc(F)cc1` + Cc1nc(NC(=O)N2CCCC2C(N)=O)sc1-c1ccnc(C(C)(C)C(F)(F)F)c1, the pIC50 (second compound 0.0316 µM) was under 7.00, the pIC50 (second compound 0.1 µM) was under 7.00 and the pIC50 (second compound 0.316 µM) was under 7.00. It also gave a pIC50 (second compound 1 µM) of under 7.00, a pIC50 (second compound 3.16 µM) of under 7.00 and a pIC50 (second compound 10 µM) of under 7.00. It also gave a viability, T/C (second compound 0.0316 µM, first compound 0.000316 µM) of 106%, a viability, T/C (second compound 0.0316 µM, first compound 0.001 µM) of 106% and a viability, T/C (second compound 0.0316 µM, first compound 0.00316 µM) of 101%. For the same compound, the viability, T/C (second compound 0.0316 µM, first compound 0.01 µM) was 108%, the viability, T/C [1] was 111% and the viability, T/C [2] was 96.7%. It also gave a viability, T/C (second compound 0.1 µM, first compound 0.000316 µM) of 104%, a viability, T/C (second compound 0.1 µM, first compound 0.001 µM) of 108% and a viability, T/C (second compound 0.1 µM, first compound 0.00316 µM) of 111%. The viability, T/C (second compound 0.1 µM, first compound 0.01 µM) was 101%, the viability, T/C [3] was 101% and the viability, T/C [4] was 102%. It also gave a viability, T/C (second compound 0.316 µM, first compound 0.000316 µM) of 102%, a viability, T/C (second compound 0.316 µM, first compound 0.001 µM) of 115% and a viability, T/C (second compound 0.316 µM, first compound 0.00316 µM) of 102%. It also gave a viability, T/C (second compound 0.316 µM, first compound 0.01 µM) of 103%, a viability, T/C [5] of 105% and a viability, T/C [6] of 98.8%. For the same compound, the viability, T/C (second compound 1 µM, first compound 0.000316 µM) was 96.6%, the viability, T/C (second compound 1 µM, first compound 0.001 µM) was 106% and the viability, T/C (second compound 1 µM, first compound 0.00316 µM) was 110%. For the same compound, the viability, T/C (second compound 1 µM, first compound 0.01 µM) was 83.9%, the viability, T/C [7] was 101% and the viability, T/C [8] was 99%. The viability, T/C (second compound 3.16 µM, first compound 0.000316 µM) was 81%, the viability, T/C (second compound 3.16 µM, first compound 0.001 µM) was 83% and the viability, T/C (second compound 3.16 µM, first compound 0.00316 µM) was 90.8%. For the same compound, the viability, T/C (second compound 3.16 µM, first compound 0.01 µM) was 87%, the viability, T/C (second compound 3.16 µM, first compound 0.0316 µM) was 91.8% and the viability, T/C (second compound 3.16 µM, first compound 0.1 µM) was 83.6%. It also gave a viability, T/C (second compound 10 µM, first compound 0.000316 µM) of 70%, a viability, T/C (second compound 10 µM, first compound 0.001 µM) of 74.3% and a viability, T/C (second compound 10 µM, first compound 0.00316 µM) of 70.7%. It also gave a viability, T/C (second compound 10 µM, first compound 0.01 µM) of 66.7%, a viability, T/C (second compound 10 µM, first compound 0.0316 µM) of 67.7% and a viability, T/C (second compound 10 µM, first compound 0.1 µM) of 76.9%.
`Cn1cnc2c(F)c(Nc3ccc(Br)cc3Cl)c(C(=O)NOCCO)cc21` + Cc1nc(NC(=O)N2CCCC2C(N)=O)sc1-c1ccnc(C(C)(C)C(F)(F)F)c1 gave a pIC50 (second compound 0.0316 µM) of 5.72, a pIC50 (second compound 0.1 µM) of 6.05 and a pIC50 (second compound 0.316 µM) of 6.29. It also gave a pIC50 (second compound 1 µM) of 6.68, a pIC50 (second compound 3.16 µM) of 7.32 and a pIC50 (second compound 10 µM) of 7.83. For the same compound, the viability, T/C (second compound 0.0316 µM, first compound 0.00949 µM) was 116%, the viability, T/C (second compound 0.0316 µM, first compound 0.03 µM) was 104% and the viability, T/C (second compound 0.0316 µM, first compound 0.0949 µM) was 89%. It also gave a viability, T/C (second compound 0.0316 µM, first compound 0.3 µM) of 82.1%, a viability, T/C (second compound 0.0316 µM, first compound 0.949 µM) of 62.8% and a viability, T/C (second compound 0.0316 µM, first compound 3 µM) of 40.5%. The viability, T/C (second compound 0.1 µM, first compound 0.00949 µM) was 105%, the viability, T/C (second compound 0.1 µM, first compound 0.03 µM) was 98.1% and the viability, T/C (second compound 0.1 µM, first compound 0.0949 µM) was 94.6%. For the same compound, the viability, T/C (second compound 0.1 µM, first compound 0.3 µM) was 68%, the viability, T/C (second compound 0.1 µM, first compound 0.949 µM) was 50.9% and the viability, T/C (second compound 0.1 µM, first compound 3 µM) was 31.6%. It also gave a viability, T/C (second compound 0.316 µM, first compound 0.00949 µM) of 114%, a viability, T/C (second compound 0.316 µM, first compound 0.03 µM) of 98.2% and a viability, T/C (second compound 0.316 µM, first compound 0.0949 µM) of 85.5%. The viability, T/C (second compound 0.316 µM, first compound 0.3 µM) was 59.9%, the viability, T/C (second compound 0.316 µM, first compound 0.949 µM) was 37.7% and the viability, T/C (second compound 0.316 µM, first compound 3 µM) was 22.4%. The viability, T/C (second compound 1 µM, first compound 0.00949 µM) was 97.3%, the viability, T/C (second compound 1 µM, first compound 0.03 µM) was 91.5% and the viability, T/C (second compound 1 µM, first compound 0.0949 µM) was 67.7%. The viability, T/C (second compound 1 µM, first compound 0.3 µM) was 40.1%, the viability, T/C (second compound 1 µM, first compound 0.949 µM) was 24.9% and the viability, T/C (second compound 1 µM, first compound 3 µM) was 12.5%. For the same compound, the viability, T/C (second compound 3.16 µM, first compound 0.00949 µM) was 73.8%, the viability, T/C (second compound 3.16 µM, first compound 0.03 µM) was 60.4% and the viability, T/C (second compound 3.16 µM, first compound 0.0949 µM) was 36.2%. The viability, T/C (second compound 3.16 µM, first compound 0.3 µM) was 22.6%, the viability, T/C (second compound 3.16 µM, first compound 0.949 µM) was 17.3% and the viability, T/C (second compound 3.16 µM, first compound 3 µM) was 6.56%. The viability, T/C (second compound 10 µM, first compound 0.00949 µM) was 56%, the viability, T/C (second compound 10 µM, first compound 0.03 µM) was 42.2% and the viability, T/C (second compound 10 µM, first compound 0.0949 µM) was 21.4%. The viability, T/C (second compound 10 µM, first compound 0.3 µM) was 16%, the viability, T/C (second compound 10 µM, first compound 0.949 µM) was 5.42% and the viability, T/C (second compound 10 µM, first compound 3 µM) was 1.91%.
